The values below are quoted from earlier work in US12133918B2, “Partially pre-gelatinized cassava starch as pharmaceutical excipient” (Griffin Gamma, LLC, priority 2021, dated 2024).

Each structure is given as a SMILES string.

For this data set the following is noted: literature and experimental data.

On to `CC(=O)Oc1ccccc1C(=O)O` [Acetylsalicylic acid, acetylsalicylic acid], for which the BCS class entry is reported as “Class I”, the “permeability (BCS)” value is listed as “highly permeable” and the “solubility (BCS)” value is “highly soluble”.
On to `COc1ccccc1OCC(O)CO` (centres unmarked) [Guaifenesin, 3-(2-methoxyphenoxy)-1,2-propanediol], for which the “permeability (BCS)” value is “highly permeable” and the “solubility (BCS)” value was “highly soluble”.
